Source: patent US7094869B2, “Low molecular weight peptidomimetic growth hormone secretagogues” (Genentech, Inc., priority 1994, dated 2006)
Entries after “also recorded” stand apart in the source; their conditions may differ. Read-outs that look alike come from different tables or passages of the source.

Experiments:
rat pituitary cells = rat pituitary cells (Rattus norvegicus, UniProt O08725); assay: Rat “pit” cell challenges: combinations with GHRP-6/GHRH, desensitization, somatostatin suppression, GHRP antagonist; type: cell-based
Method: Dispersion: Adult female Sprague-Dawley (160-180 g., Charles River) rats were group-caged in a 12:12 light:dark cycle with food and water available ad libitum. Pituitaries from ten rats were removed, the posterior pituitary discarded and the anterior pituitary placed in Hanks' Balanced Salt Solution (HBSS: without calcium chloride, w/o magnesium chloride, w/o magnesium sulfate; Gibco) containing 20 mM HEPES (Gibco) and 100 U/ml penicillin streptomycin (PS: JRH Biosciences). Under sterile conditions, pituitaries were rinsed twice then minced into small fragments with a razor blade. Fragments were resuspended in 5 ml of HBSS/HEPES containing 20 mg collagenase (Serva 17449) and 200 ml of 1 mg/ml DNase (Sigma) for a 40 min. incubation in a 37° C. gyrotory water bath shaker (New Brunswick Scientific Model G76; setting 10). After the incubation, fragments were triturated to yield small clumps and single cells. The cells were centrifuged 1000× g for 5 min, resuspended, counted and plated at a final cell concentration of 100,000 cells/ml. Incubation media was DME low glucose media w/NaHCO3 (Gibco) containing 20 mM hepes, 100 U/ml PS and 10% FBS (Hyclone A-111-L). Cells were plated at 0.5 ml per well in 48 well plates (Falcon) and incubated at 37° C. in 5% C02 for three days. […] The highest concentration of DMSO in media was 0.1%. Stock solutions (1 mM) of rat GHRH, somatostatin (Sigma) and GHRP antagonist HwkWfK were made fresh in media and diluted appropriately. The media used in all challenges and washing steps was DME low glucose with 20 mM Hepes, 100 U/ml PS, 10% FBS. Media was warmed to 37° C. and gassed by placing it into the incubator prior to challenge. On day three, the media was discarded and fresh media (approximately 1 ml) added for the first of three washes. After the last wash, the plate was placed back in the incubator for a 15 min pre-incubation. Then cells were washed 2× (with warmed and gassed media) and fresh 0.5 ml media were added for the second 15 min. pre-incubation. After the second pre-incubation cells were washed 2× as above and 0.5 ml of control and test solutions were added for a final 15 min incubation. After this incubation, the media were removed for subsequent GH ELISA. GH ELISA: A two-site ELISA was used to determine rat GH concentration in the media. Briefly, goat anti-rat GH antibody (lot#19164-20) was used to coat Nunc immunoplates overnight. After blocking and washing, standard (rat GH reference preparation: Parlow) and challenge media is diluted 1:20 prior to GH assay were added for a 1 hr room temperature incubation. STATISTICS: The mean for each group was determined and analyzed by one-way analysis of variance with a post-hoc Student-Newman-Keuls. Significance is defined as P<0.05. The EC50 was calculated using a 4-parameter curve-fit program (Kaleidagraph). Three to four independent EC50s were used to derive the mean and SEM.

LH = LH release from pituitary cells (RIA); type: cell-based, rat; conditions: 100 nM; listed as (inip)-bbFK-NH2
Method: (§1) Dispersion: Adult female Sprague-Dawley (160-180 g., Charles River) rats were group-caged in a 12:12 light:dark cycle with food and water available ad libitum. Pituitaries from ten rats were removed, the posterior pituitary discarded and the anterior pituitary placed in Hanks' Balanced Salt Solution (HBSS: without calcium chloride, w/o magnesium chloride, w/o magnesium sulfate; Gibco) containing 20 mM HEPES (Gibco) and 100 U/ml penicillin streptomycin (PS: JRH Biosciences). Under sterile conditions, pituitaries were rinsed twice then minced into small fragments with a razor blade. Fragments were resuspended in 5 ml of HBSS/HEPES containing 20 mg collagenase (Serva 17449) and […] of 1 mg/ml DNase (Sigma) for a 40 min. incubation in a 37° C. gyrotory water bath shaker (New Brunswick Scientific Model G76; setting 10). […] The cells were centrifuged 1000× g for 5 min, resuspended, counted and plated at a final cell concentration of 100,000 cells/ml. […] STATISTICS: The mean for each group was determined and analyzed by one-way analysis of variance with a post-hoc Student-Newman-Keuls. […] The EC50 was calculated using a 4-parameter curve-fit program (Kaleidagraph). […] RIA of pituitary hormones: LH, FSH, TSH, and Prolactin were determined with commercially available kits from Amersham, and ACTH levels were determined by a RIA kit from ICN. […]

FSH = FSH release from pituitary cells (RIA); type: cell-based, rat; conditions: 100 nM; listed as (inip)-bbFK-NH2
Method: as §1

TSH = TSH release from pituitary cells (RIA); type: cell-based, rat; conditions: 100 nM; listed as (inip)-bbFK-NH2
Method: as §1

ACTH = ACTH release from pituitary cells (RIA); type: cell-based, rat; conditions: 100 nM
Method: Dispersion: Adult female Sprague-Dawley (160-180 g., Charles River) rats were group-caged in a 12:12 light:dark cycle with food and water available ad libitum. Pituitaries from ten rats were removed, the posterior pituitary discarded and the anterior pituitary placed in Hanks' Balanced Salt Solution (HBSS: without calcium chloride, w/o magnesium chloride, w/o magnesium sulfate; Gibco) containing 20 mM HEPES (Gibco) and 100 U/ml penicillin streptomycin (PS: JRH Biosciences). Under sterile conditions, pituitaries were rinsed twice then minced into small fragments with a razor blade. Fragments were resuspended in 5 ml of HBSS/HEPES containing 20 mg collagenase (Serva 17449) and […] of 1 mg/ml DNase (Sigma) for a 40 min. incubation in a 37° C. gyrotory water bath shaker (New Brunswick Scientific Model G76; setting 10). After the incubation, fragments were triturated to yield small clumps and single cells. The cells were centrifuged 1000× g for 5 min, resuspended, counted and plated at a final cell concentration of 100,000 cells/ml. Incubation media was DME low glucose media w/NaHCO3 (Gibco) containing 20 mM hepes, 100 U/ml PS and 10% FBS (Hyclone A-111-L). Cells were plated at 0.5 ml per well in 48 well plates (Falcon) and incubated at 37° C. in 5% C02 for three days. For challenges to determine release of other pituitary hormones cells were plated at 200,000 cells per ml with 2 ml per well of a Swell plate (Corning). Challenge: A (inip)bbFK-NH2 stock (or other GHRP) concentration of 1 mM was made in DMSO and diluted with warmed media approximately 30 min prior to use. The highest concentration of DMSO in media was 0.1%. […] STATISTICS: The mean for each group was determined and analyzed by one-way analysis of variance with a post-hoc Student-Newman-Keuls. […] The EC50 was calculated using a 4-parameter curve-fit program (Kaleidagraph). […] RIA of pituitary hormones: LH, FSH, TSH, and Prolactin were determined with commercially available kits from Amersham, and ACTH levels were determined by a RIA kit from ICN. […]

pituitary cells = assay: Calcium flux experiment (Indo-1 AM loaded pituitary cells); type: cell-based, rat; conditions: 10 nM, 21 seconds after addition
[1] = Combination GHRP and IGF-1 treatment of obese Zucker Diabetic Fatty (ZDF) rats; type: in vivo, rat
Method: Ten lean ZDF rats served as an additional control group.
This GHRP was given by sc. injection twice daily, each dose of 100 μl therefore containing 50 μg/injection or 100 μg/day.
Recombinant human IGF-1 (rhIGF-1) at 13.8 mg/ml in acetate buffer was loaded into osmotic minipumps (Alza, Palo Alto, model 2ML4, pump rate 2.29 μl/hr for 28 days, fill volume 2064 μl). Other pumps were filled with acetate buffer. […] The delivered dose of rhIGF-1 was therefore 758 μg/day. Recombinant human growth hormone (rhGH, Lot R9092AX, Genentech Inc.) was diluted in sterile water to 2.5 g/l and a 100 μl injection given twice daily (250 μg/injection, or 500 μg/day).
The next day the osmotic pumps were inserted into rats. […] All rats not receiving rhIGF-1 containing pumps were implanted with pumps delivering the acetate buffer excipient.
On day 24 blood was withdrawn after a 4 hour fast and 1.5 U/kg of regular insulin was injected i.p. and a second blood sample taken 30 minutes later. The rats were then sacrificed using carbon dioxide, bled from the heart, and organs taken. Serum glucose was measured by standard automated procedures.
Data are presented as mean±standard error (SE) of the mean with 8 rats per group.

rat pituitary cells, sequence (O08725 whole entry): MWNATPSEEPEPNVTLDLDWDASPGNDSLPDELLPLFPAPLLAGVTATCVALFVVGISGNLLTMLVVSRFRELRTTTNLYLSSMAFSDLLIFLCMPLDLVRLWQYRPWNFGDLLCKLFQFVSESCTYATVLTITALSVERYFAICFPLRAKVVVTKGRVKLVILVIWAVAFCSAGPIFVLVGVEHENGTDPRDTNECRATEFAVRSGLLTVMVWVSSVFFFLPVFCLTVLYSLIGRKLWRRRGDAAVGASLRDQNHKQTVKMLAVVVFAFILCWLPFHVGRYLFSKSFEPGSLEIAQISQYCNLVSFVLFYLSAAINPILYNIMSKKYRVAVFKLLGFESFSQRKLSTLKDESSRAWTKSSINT

What does the source list for `NCCCC[C@H](NC(=O)[C@H](Cc1ccccc1)NC(=O)[C@@H](Cc1ccc2ccccc2c1)NC(=O)[C@@H](Cc1ccc2ccccc2c1)NC(=O)C1CCNCC1)C(N)=O` [(inip) b b F K amide, (inip)-DβNal-DβNal-Phe-Lys-amide]?
increase in GH levels over control (rat pituitary cells; 100 nM): 3 fold; GH release in combination with GHRH (rat pituitary cells; GHRP 100 nM plus GHRH 10 or 100 nM, listed as (inip)-bbFK-NH2): show synergy with 10 nM GHRH; also recorded: showed synergy with GHRH; GH release in combination with GHRP-6 (rat pituitary cells; both at 100 nM, listed as (inip)-bbFK-NH2): no additional or synergistic increase was observed; also recorded: no additional increase was observed; GH release in the presence of 20 nM somatostatin (rat pituitary cells; coincubation with 20 nM somatostatin, listed as (inip)-bbFK-NH2): suppressed this enhanced release; GH release after sequential 15 min incubations with fresh compound (desensitization) (rat pituitary cells; three sequential 15 min incubations, 100 nM): no significant GH release compared to control; LH release (LH): had no effect on these hormone concentrations; also recorded: unchanged; FSH release (FSH): had no effect on these hormone concentrations; also recorded: unchanged; TSH release (TSH): had no effect on these hormone concentrations; also recorded: unchanged; ACTH release (ACTH; listed as (inip)-bbFK-NH2): unchanged; ACTH release (ACTH; listed as (inip)bbFK-NH2): no significant change; Ca++ flux (pituitary cells; listed as (inip)-bbFK-NH2): increased Ca flux; Ca++ flux (pituitary cells; listed as (inip)bbFK-NH2): increased C^++ flux; body weight gain ([1]; Day 2, obese ZDF male rats, GHRP 100 μg/d sc injection, rhIGF-1 758 μg/d pump, rhGH 500 μg/d): 18.3 ± 1.0 g; effect on insulin sensitivity (diabetogenic effect) ([1]; rat, in vivo): greatly reduced effect on insulin sensitivity (diabetogenic effect) than rhGH; fasting blood glucose ([1]; rat, in vivo): 386±63 mg %; serum insulin ([1]; rat, in vivo): 39 ± 6 ng/mL; serum IGF-1 concentrations (either mode of delivery): not significantly affected; thymus weight (high dose infusion (100 μg/day)): 0.25 ± 0.03 g; epiphyseal plate width (high dose injections): 191±8 μm; heart weight (high dose injections): 1.15 ± 0.10 g; thymus weight (high dose injections): 0.33 ± 0.02 g; eviscerated and skinned carcass weight (high dose injections (50 μg 2 times a day)): 152.4 ± 2.5 g; weight gain (in 14 days, FIG. 20): 36 ± 3 g; cartilage growth (epiphyseal plate width) (infusions): did not significantly increase cartilage growth; skin weight compared to control (injections and low dose infusion): heavier; soleus muscle, kidney and liver weight (injections or infusions, 14 days): unaffected; epiphyseal plate width (low dose injections): 160±11 μm; eviscerated and skinned carcass weight (low dose injections (10 μg 2 times a day)): 152.8 ± 2.8 g; weight gain (twice daily injections of 10 μg, adult female rats): 30 gram
